Laboratory results as given in US8846670B2, “1,2,3,4-tetrahydro-pyrimido(1,2-a)pyrimidin-6-one derivatives, preparation thereof, and pharmaceutical use thereof” (priority 2009, dated 2014).

Columns and labels:
Format in all cases: cell-based
[1] = test system: AKT protein phosphorylated on serine 473 (P-AKT-S473) in PC3 human prostate carcinoma line; experiment: Study of pAKT expression in PC3 human prostate carcinoma cells measured by the MSD Multi-spot Biomarker Detection technique (Test B); conditions: MSD sandwich immunoassay, 1 to 2 h incubation, absolute IC50, mean of 2 experiments
Experimental: The inhibitory activity of the molecules on AKT phosphorylation is measured either by western blotting using the technique described below, or by the MSD Multi-spot Biomarker detection technique from Meso Scale Discovery also described below.
Study of pAKT Expression in PC3Human Prostate Carcinoma Cells Measured by the MSD Multi-Spot Biomarker Detection Technique from Meso Scale Discovery (Test B):
The primary antibody specific for P-AKT-S473 (Kit #K151CAD) is coated onto an electrode in each well of the 96-well plates of the MSD kit: after the addition of a protein lysate to each well, the signal is visualised by adding a secondary detection antibody labelled with an electrochemiluminescent compound. The procedure followed is that described in the kit.
On day 2, the cells are incubated in the presence or absence of the test products for 1 to 2 h at 37° C. in the presence of 5% of CO2. The molecules, diluted in dimethyl sulphoxide (DMSO Sigma #D2650), are added from a 20-times concentrated stock solution, the final percentage of DMSO being 0.1%.
After this incubation, the cells are lysed for the preparation of the proteins. […] At this stage, the plates containing the lysates can be frozen at −20° C. or at −80° C.
The wells of the 96-well plates of the MSD kit are saturated for 1 h at ambient temperature with the blocking solution of the MSD kit. Four washes are carried out with 150 μl of Tris Wash Buffer of the MSD kit. The lysates previously prepared are transferred into the 96-well multi-spot plates of the MSD kit and incubated for 1 h at ambient temperature, with shaking. Four washes are carried out with 150 μl of Tris Wash Buffer of the MSD kit. 25 μl of the MSD sulfo-tag detection antibody solution are added to the wells and incubated for 1 h at ambient temperature, with shaking. Four washes are carried out with 150 μl of Tris Wash Buffer of the MSD kit. 150 μl of Read Buffer of the MSD kit are added to the wells and the plates are read immediately on the S12400 instrument from Meso Scale Discovery.
The instrument measures a signal for each well. Wells without cells and containing the lysis buffer serve to determine the background noise that will be subtracted from all the measurements (min). The wells containing cells in the absence of product and in the presence of 0.1% DMSO are considered to be the 100% signal (max). The percentage inhibition is calculated for each concentration of test product according to the following formula: (1−((test−min)/(max−min)))×100.
2 independent experiments make it possible to calculate the mean of the IC50 values.

[2] = test system: P. falciparum (highly chloroquine-resistant strain Fcm29-Cameroon); experiment: Antimalarial activity test (radioactive micromethod of Desjardins); conditions: Plasmodium falciparum, Erythrocyte, infected human erythrocytes, 48 h, tritiated hypoxanthine incorporation
Experimental: Antimalarial Activity Test
The P. falciparum strains are cultured in solutions of RPM! […] For each assay, the parasites are incubated with selected concentrations of drugs for 48 h at 37° C. in a humid atmosphere and at 5% CO2. Artemisinin, artesunate and also chloroquine diphosphate are used as reference molecules. The first dilution of the drug is prepared at 1 mg/ml in dimethyl sulphoxide. The range of successive daughter solution dilutions is also prepared in dimethyl sulphoxide. […] These dilutions are then added to the parasites in culture in the microplates. […] The growth of the parasites is measured by incorporation of tritiated hypoxanthine (added 24 h after the beginning of the exposure to the drug) compared with the incorporation in the absence of drug.

[3] = test system: translocation of the LC3 protein in Hela GFP-LC3 cells; experiment: Study of the translocation of the LC3 protein in Hela human cells, measured by image analysis cytometry (Test C, autophagy); conditions: 2 h, Hela GFP-LC3 cells with LC3 granulations, EBSS + 10 μM hydroxychloroquine, absolute IC50
Experimental: The inhibitory activity of the molecules on autophagy is measured by the translocation of the LC3 protein from the cytoplasm to the autophagosomes. For this, Hela cells were transfected with a vector encoding the chimeric protein GFP-LC3. A Hela clone stably expressing the GFP-LC3 protein was selected.
Study of the Translocation of the LC3 Protein in Hela Human Cells, Measured by Image Analysis Cytometry (Test C):
On day 2, the cells are washed twice with EBSS (Sigma #E3024). The cells are then incubated in EBSS, 10 μM of hydroxychloroquine and test products for 2 h at 37° C. in the presence of 5% CO2. The molecules are diluted in dimethyl sulphoxide (DMSO Sigma #D2650), the final DMSO percentage being 0.1%.
After this incubation, the cells are fixed with 4% paraformaldehyde (Sigma #HT501128 4 L) for 10 min. […] The 96-well plates are then read with the iCyte image analysis cytometer (Compucyte).
Two independent experiments make it possible to calculate the mean of the IC50 values.

[4] = Homo sapiens, PC-3, P-AKT-S473 in PC3 cells

Structure (SMILES) | IC50 [1, 4] | IC50 ([3]; Homo sapiens, HeLa) | IC50 ([1]; P-AKT-S473 in PC3 cells) | IC50 [3] | inhibition at 1 µM [2] | inhibition at 0.1 µM [2]
COc1cc(Cl)ccc1[C@H](O)CN1c2nc(N3CCOCC3)cc(=O)n2CC[C@H]1C(F)(F)F [Example 53, 9-[(S)-2-(4-Chloro-2-methoxyphenyl)-2-hydroxyethyl]-2-morpholin-4-yl-8-(S)-trifluoromethyl-6,7,8,9-tetrahydro-pyrimido[1,2-a]pyrimidin-4-one] | – | – | – | – | 99% | 75%
O=c1cc(N2CCOCC2)nc2n1CC[C@@H](C(F)(F)F)N2CC(O)Cc1ccccc1 (stereo partly drawn) [Example 55, 9-(2-Hydroxy-3-phenylpropyl)-2-morpholin-4-yl-8-(S)-trifluoromethyl-6,7,8,9-tetrahydropyrimido[1,2-a]pyrimidin-4-one] | – | – | – | – | 93% | 81%
COc1ccc([C@H](O)CN2c3nc(N4CCOCC4)cc(=O)n3CC[C@H]2C(F)(F)F)c(Cl)c1 [Example 54, 9-[(S)-2-(2-Chloro-4-methoxyphenyl)-2-hydroxyethyl]-2-morpholin-4-yl-8-(S)-trifluoromethyl-6,7,8,9-tetrahydro-pyrimido[1,2-a]pyrimidin-4-one] | – | – | – | – | 99% | 83%
CN(C)CC(=O)Nc1cccc([C@H](O)CN2c3nc(N4CCOCC4)cc(=O)n3CC[C@H]2C(F)(F)F)c1 [Example 50, 2-Dimethylamino-N-{3-[(S)-1-hydroxy-2-((S)-8-morpholin-4-yl-6-oxo-2-trifluoromethyl-3,4-dihydro-2H,6H-pyrimido[1,2-a]pyrimidin-1-yl)ethyl]phenyl}acetamide] | – | – | – | – | 99% | 79%
COc1cc(F)ccc1[C@H](O)CN1c2nc(N3CCOCC3)cc(=O)n2CC[C@H]1C(F)(F)F [Example 52, 9-[(S)-2-(4-Fluoro-2-methoxyphenyl)-2-hydroxyethyl]-2-morpholin-4-yl-8-(S)-trifluoromethyl-6,7,8,9-tetrahydro-pyrimido[1,2-a]pyrimidin-4-one] | – | – | – | – | 99% | 75%
O=c1cc(N2CCOCC2)nc2n1CC[C@@H](C(F)(F)F)N2CCc1ccc(O)cc1 [Example 56, 9-[2-(4-Hydroxyphenyl)ethyl]-2-morpholin-4-yl-8-(S)-trifluoromethyl-6,7,8,9-tetrahydropyrimido[1,2-a]pyrimidin-4-one] | – | – | – | – | 99% | 94%
O=c1cc(N2CCOCC2)nc2n1CC[C@@H](C(F)(F)F)N2C[C@@H](O)c1cc2ccccc2s1 [Example 48, 9-((R)-2-Benzo[b]thiophen-2-yl-2-hydroxyethyl)-2-morpholin-4-yl-8-(S)-trifluoromethyl-6,7,8,9-tetrahydro-pyrimido[1,2-a]pyrimidin-4-one] | – | – | – | – | 96% | 89%
O=c1cc(N2CCOCC2)nc2n1CC[C@@H](C(F)(F)F)N2C[C@@H](O)c1cccc(O)c1 [Example 49, 9-[(S)-2-Hydroxy-2-(3-hydroxyphenyl)ethyl]-2-morpholin-4-yl-8-(S)-trifluoromethyl-6,7,8,9-tetrahydropyrimido[1,2-a]pyrimidin-4-one] | – | – | – | – | 99% | 81%
COc1ccccc1[C@H](O)CN1c2nc(N3CCOCC3)cc(=O)n2CC[C@H]1C(F)(F)F [Example 51, 9-[(S)-2-Hydroxy-2-(2-methoxyphenyl)ethyl]-2-morpholin-4-yl-8-(S)-trifluoromethyl-6,7,8,9-tetrahydropyrimido[1,2-a]pyrimidin-4-one] | – | – | – | – | 99% | 75%

Continued, in another order:

IC50 [1, 4] | IC50 ([3]; Homo sapiens, HeLa) | IC50 ([1]; P-AKT-S473 in PC3 cells) | IC50 [3] | Structure (SMILES) | inhibition at 1 µM [2] | inhibition at 0.1 µM [2]
10 nM | 363 nM | – | – | COc1ccc(N2c3nc(N4CCOCC4)cc(=O)n3CC[C@H]2C(F)(F)F)cc1 [Example 27, (8S)-9-(4-methoxyphenyl)-2-(morpholin-4-yl)-8-(trifluoromethyl)-6,7,8,9-tetrahydro-4H-pyrimido[1,2-a]pyrimidin-4-one] | 36% | –
9 nM | 103 nM | – | – | COc1ccccc1CCN1c2nc(N3CCOCC3)cc(=O)n2CC[C@H]1C(F)(F)F [Example 24, (8S)-9-[2-(2-methoxyphenyl)ethyl]-2-(morpholin-4-yl)-8-(trifluoromethyl)-6,7,8,9-tetrahydro-4H-pyrimido[1,2-a]pyrimidin-4-one] | 100% | 40%
25 nM | 632 nM | – | – | O=c1cc(N2CCOCC2)nc2n1CC[C@@H](C(F)(F)F)N2c1ccc(F)cc1 [Example 13, (8S)-9-(4-fluorophenyl)-2-(morpholin-4-yl)-8-(trifluoromethyl)-6,7,8,9-tetrahydro-4H-pyrimido[1,2-a]pyrimidin-4-one] | 52% | –
– | – | 22 nM | 35 nM | CC(c1ccc(F)cc1)N1c2nc(N3CCOCC3)cc(=O)n2CC[C@H]1C(F)(F)F (single isomer, unassigned) [Example 34, (8S)-9-[(1R or 1S)-1-(4-fluorophenyl)ethyl]-2-(morpholin-4-yl)-8-(trifluoromethyl)-6,7,8,9-tetrahydro-4H-pyrimido[1,2-a]pyrimidin-4-one] | – | –
1 nM | 5 nM | – | – | COc1ccc([C@H](O)CN2c3nc(N4CCOCC4)cc(=O)n3CC[C@H]2C(F)(F)F)cc1 [Example 7, (8S)-9-[(2S)-2-hydroxy-2-(4-methoxyphenyl)ethyl]-2-(morpholin-4-yl)-8-(trifluoromethyl)-6,7,8,9-tetrahydro-4H-pyrimido[1,2-a]pyrimidin-4-one] | – | –
15 nM | 337 nM | – | – | O=c1cc(N2CCOCC2)nc2n1CC[C@@H](C(F)(F)F)N2c1cccc(F)c1 [Example 14, (8S)-9-(3-fluorophenyl)-2-(morpholin-4-yl)-8-(trifluoromethyl)-6,7,8,9-tetrahydro-4H-pyrimido[1,2-a]pyrimidin-4-one] | – | –
7 nM | 38 nM | – | – | COc1cccc(CCN2c3nc(N4CCOCC4)cc(=O)n3CC[C@H]2C(F)(F)F)c1 [Example 25] | – | –
3 nM | 82 nM | – | – | O=c1cc(N2CCOCC2)nc2n1CC[C@@H](C(F)(F)F)N2CCc1cccc(F)c1 [Example 40, (8S)-9-[2-(3-fluorophenyl)ethyl]-2-(morpholin-4-yl)-8-(trifluoromethyl)-6,7,8,9-tetrahydro-4 H-pyrimido[1,2-a]pyrimidin-4-one] | – | –
46 nM | 319 nM | – | – | C[C@H](c1ccc(Br)cc1)N1c2nc(N3CCOCC3)cc(=O)n2CC[C@H]1C(F)(F)F (single isomer, unassigned) [Example 11, (8S)-9-[(1S or 1R)-1-(4-bromophenyl)ethyl]-2-(morpholin-4-yl)-8-(trifluoromethyl)-6,7,8,9-tetrahydro-4H-pyrimido[1,2-a]pyrimidin-4-one] | – | –
